Target: T1, human LPA1 (Homo sapiens, UniProt Q92633)
T1 construct: expressed in transfected cells; host or cells: Chinese hamster ovary (CHO) cells
Assay: LPA1 functional antagonist assay (LPA-induced calcium flux in CHO cells overexpressing human LPA1)
Type: cell-based
Details: inhibition of calcium flux induced by 10 nM LPA, CHO cells overexpressing human LPA1; read-out: hLPA1 IC50
Summary of the method: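 CHO cells overexpressing human LPA1, dye-loaded 30 min at 37 °C, then given compound (0.08 nM–5 μM final, 0.5% DMSO) in HBSS/20 mM HEPES/0.1% fatty-acid-free BSA for 20 min at room temperature before 10 nM LPA. IC50 as 50% inhibition of LPA-evoked calcium flux, 4-parameter logistic fit.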

T1 sequence (Q92633 whole entry): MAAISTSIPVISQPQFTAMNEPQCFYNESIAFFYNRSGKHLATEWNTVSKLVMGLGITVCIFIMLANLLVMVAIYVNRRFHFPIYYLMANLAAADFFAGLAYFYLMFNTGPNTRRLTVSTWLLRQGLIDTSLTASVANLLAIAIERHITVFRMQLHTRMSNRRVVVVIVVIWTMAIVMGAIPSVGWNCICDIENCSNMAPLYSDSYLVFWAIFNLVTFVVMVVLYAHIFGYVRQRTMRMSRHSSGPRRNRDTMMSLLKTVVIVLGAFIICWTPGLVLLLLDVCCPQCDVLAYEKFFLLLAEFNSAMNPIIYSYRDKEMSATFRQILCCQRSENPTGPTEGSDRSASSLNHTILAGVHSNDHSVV

In order of falling IC50:
1. Cc1nc(-c2nnn(C)c2CNc2nc(C)c(C)s2)ccc1O[C@H]1CCC[C@H](C(=O)O)C1 [Example 26]  3650 nM
2. Cc1nc(-c2nnn(C)c2Cn2cc(COC(C)(C)C)nn2)ccc1O[C@H]1CCC[C@H](C(=O)O)C1 [Example 88]  2930 nM
3. CCc1nc(N(C)Cc2c(-c3ccc(O[C@H]4CCC[C@H](C(=O)O)C4)c(C)n3)nnn2C)no1 [Example 224, (1S,3S)-3-((6-(5-(((5-ethyl-1,2,4-oxadiazol-3-yl)(methyl)amino)methyl)-1-methyl-1H-1,2,3-triazol-4-yl)-2-methylpyridin-3-yl)oxy)cyclo-hexane-1-carboxylic acid]  2720 nM
4. Cc1nc(-c2nnn(C)c2Cn2nnnc2C2CC2)ccc1O[C@H]1CCC[C@H](C(=O)O)C1 [Example 319, (1S,3S)-3-((6-(5-((5-cyclopropyl-1H-tetrazol-1-yl)methyl)-1-methyl-1H-1,2,3-triazol-4-yl)-2-methylpyridin-3-yl)oxy)cyclo-hexane-1-carboxylic acid]  673 nM
5. Cc1nc(-c2nnn(C)c2CNc2nnc(C(F)(F)F)o2)ccc1O[C@H]1CCC[C@H](C(=O)O)C1 [Example 47]  595 nM
6. Cc1nc(-c2nnn(C)c2Cn2nnc(OC3CCCC3)n2)ccc1O[C@H]1CCC[C@@H](C(=O)O)C1 [Example 337, (1R,3S)-3-{[6-(5-{[5-(cyclopentyloxy)-2H-1,2,3,4-tetrazol-2-yl]methyl}-1-methyl-1H-1,2,3-triazol-4-yl)-2-methylpyridin-3-yl]oxy}cyclohexane-1-carboxylic acid]  546 nM
7. Cc1nc(-c2nnn(C)c2CNc2nnc(CC(C)C)s2)ccc1O[C@H]1CCC[C@H](C(=O)O)C1 [Example 8]  455 nM
8. Cc1nc(-c2nnn(C)c2Cn2nnnc2-c2cccc(F)c2)ccc1O[C@H]1CCC[C@H](C(=O)O)C1 [Example 321, (1S,3S)-3-((6-(5-((5-(3-fluoro-phenyl)-1H-tetrazol-1-yl)methyl)-1-methyl-1H-1,2,3-triazol-4-yl)-2-methylpyridin-3-yl)oxy)cyclo-hexane-1-carboxylic acid]  428 nM
9. Cc1nc(-c2nnn(C)c2CNc2ncn(Cc3ccccc3)n2)ccc1O[C@H]1CCC[C@H](C(=O)O)C1 [Example 34]  332 nM
10. CCCc1nnnn1Cc1c(-c2ccc(O[C@H]3CCC[C@H](C(=O)O)C3)cn2)nnn1C [Example 253, (1S,3S)-3-((6-(1-methyl-5-((5-propyl-1H-tetrazol-1-yl)methyl)-1H-1,2,3-triazol-4-yl)pyridin-3-yl)oxy)cyclohexane-1-carboxylic acid]  264 nM
11. Cc1nc(-c2nnn(C)c2Cn2cnc(CC3CC3)n2)ccc1O[C@H]1CCC[C@H](C(=O)O)C1 [Example 210]  191 nM
12. CCCc1nnc(NCc2c(-c3ccc(O[C@H]4CCC[C@H](C(=O)O)C4)c(C)n3)nnn2C)s1 [Example 2, (1 S,3S)-3-((2-Methyl-6-(1-methyl-5-(((5-propyl-1,3,4-thiadiazol-2-yl)amino)methyl)-1H-1,2,3-triazol-4-yl)pyridin-3-yl)oxy)cyclohexanecarboxylic acid]  185 nM
13. Cc1nc(-c2nnn(C)c2CNc2ncn(CC(C)C)n2)ccc1O[C@H]1CCC[C@H](C(=O)O)C1 [Example 25, (1 S,3 S)-3-((6-(5-(((1-isobutyl-1H-1,2,4-triazol-3-yl)amino)methyl)-1-methyl-1H-1,2,3-triazol-4-yl)-2-methylpyridin-3-yl)oxy)cyclohexane-1-carboxylic acid]  125 nM
14. Cc1nc(-c2nnn(C)c2CNc2ncc(C(C)C)s2)ccc1O[C@H]1CCC[C@H](C(=O)O)C1 [Example 15]  55 nM
15. Cc1nc(-c2nnn(C)c2COc2ncn(-c3ccccc3)n2)ccc1O[C@H]1CCC[C@H](C(=O)O)C1 [Example 115, (1S,3S)-3-((2-methyl-6-(1-methyl-5-(((1-phenyl-1H-1,2,4-triazol-3-yl)oxy)methyl)-1H-1,2,3-triazol-4-yl)pyridin-3-yl)oxy)cyclohexane-1-carboxylic acid]  47 nM
16. Cc1nc(-c2nnn(C)c2Cn2nncc2CC2CC2)ccc1O[C@H]1CCC[C@H](C(=O)O)C1 [Example 263, (1S,3S)-3-((6-(5-((5-(cyclopropyl-methyl)-1H-1,2,3-triazol-1-yl)-methyl)-1-methyl-1H-1,2,3-triazol-4-yl)-2-methylpyridin-3-yl)oxy)-cyclohexane-1-carboxylic acid]  41 nM
17. Cc1nc(-c2nnn(C)c2Cn2ncc(C(C)C)n2)ccc1O[C@H]1CCC[C@H](C(=O)O)C1 [Example 272, (1S,3S)-3-((6-(5-((4-isopropyl-2H-1,2,3-triazol-2-yl)methyl)-1-methyl-1H-1,2,3-triazol-4-yl)-2-methylpyridin-3-yl)oxy)cyclohexane-1-carboxylic acid]  35 nM
18. Cn1nnc(-c2ccc(O[C@H]3CCC[C@H](C(=O)O)C3)cn2)c1CNc1noc(CC2CCC2)n1 [Example 288, (1S,3S)-3-((6-(5-(((5-(cyclobutylmethyl)-1,2,4-oxadiazol-3-yl)amino)methyl)-1-methyl-1H-1,2,3-triazol-4-yl)pyridin-3-yl)oxy)cyclohexane-1-carboxylic acid]  34.1 nM
19. CCCCOc1nnn(Cc2c(-c3ccc(O[C@H]4CCC[C@H](C(=O)O)C4)c(C)n3)nnn2C)n1 [Example 345, (1S,3S)-3-[(6-{5-[(5-butoxy-2H-1,2,3,4-tetrazol-2-yl)methyl]-1-methyl-1H-1,2,3-triazol-4-yl}-2-methylpyridin-3-yl)oxy]cyclo-hexane-1-carboxylic acid]  32 nM
20. Cc1nc(-c2nnn(C)c2Cn2nnc(CC3CC3)n2)ccc1O[C@H]1CCC[C@H](C(=O)O)C1 [Example 105, (1 S,3 S)-3-((6-(5-((5-(cyclopropylmethyl)-2H-tetrazol-2-yl)methyl)-1-methyl-1H-1,2,3-triazol-4-yl)-2-methylpyridin-3-yl)oxy)cyclohexane-1-carboxylic acid]  29 nM
21. Cc1nc(-c2nnn(C)c2CNc2nc(-c3ccccc3)no2)ccc1O[C@H]1CCC[C@H](C(=O)O)C1 [Example 61]  26 nM
22. Cc1nc(-c2nnn(C)c2Cc2noc(CC3CC3)n2)ccc1O[C@H]1CCC[C@H](C(=O)O)C1 [Example 228, (1S,3S)-3-((6-(5-((5-(cyclopropylmethyl)-1,2,4-oxadiazol-3-yl)methyl)-1-methyl-1H-1,2,3-triazol-4-yl)-2-methylpyridin-3-yl)oxy)cyclohexane-1-carboxylic acid]  19 nM
23. Cc1nc(-c2nnn(C)c2Cc2noc(CCC(C)C)n2)ccc1O[C@H]1CCC[C@H](C(=O)O)C1 [Example 229, (1S,3S)-3-((6-(5-((5-isopentyl-1,2,4-oxadiazol-3-yl)methyl)-1-methyl-1H-1,2,3-triazol-4-yl)-2-methylpyridin-3-yl)oxy)cyclohexane-1-carboxylic acid]  11 nM
24. Cc1nc(-c2nnn(C)c2CNc2cnn(-c3ccccc3)n2)ccc1O[C@H]1CCC[C@H](C(=O)O)C1 [Example 32]  10 nM
25. C=CCC(C)c1nc(NCc2c(-c3ccc(O[C@H]4CCC[C@H](C(=O)O)C4)c(C)n3)nnn2C)no1 (stereo partly drawn) [Example 202]  8.4 nM

Same assay, conditions: read-out: hLPA1 IC50

In order of rising IC50:
1. Cc1nc(-c2nnn(C)c2CNc2nnnn2CC2CC2)ccc1O[C@H]1CCC[C@H](C(=O)O)C1 [Example 378, (1S,3S)-3-((6-(5-(((1-(cyclopropylmethyl)-1H-tetrazol-5-yl)amino)methyl)-1-methyl-1H-1,2,3-triazol-4-yl)-2-methylpyridin-3-yl)oxy)cyclohexane-1-carboxylic acid]  300 nM
2. CCCc1cn(Cc2c(-c3ccc(O[C@H]4CCC[C@H](C(=O)O)C4)c(CC)n3)nnn2C)nn1 [Example 372, (1S,3S)-3-((2-ethyl-6-(1-methyl-5-((4-propyl-1H-1,2,3-triazol-1-yl)methyl)-1H-1,2,3-triazol-4-yl)pyridin-3-yl)oxy)cyclohexane-1-carboxylic acid]  303 nM
3. CCCCn1nnnc1Cc1c(-c2ccc(O[C@H]3CCC[C@H](C(=O)O)C3)c(C)n2)nnn1C [Example 365, (1S,3S)-3-((6-(5-((1-butyl-1H-tetrazol-5-yl)methyl)-1-methyl-1H-1,2,3-triazol-4-yl)-2-methylpyridin-3-yl)oxy)cyclohexane-1-carboxylic acid]  322 nM
4. Cc1nc(-c2nnn(C)c2Cn2nnc(C3CC3)n2)ccc1O[C@H]1CCC[C@H](C(=O)O)C1 [Example 412, (1S,3S)-3-((6-(5-((5-cyclopropyl-2H-tetrazol-2-yl)methyl)-1-methyl-1H-1,2,3-triazol-4-yl)-2-methyl-pyridin-3-yl)oxy)cyclohexane-1-carboxylic acid]  384 nM
5. COCCCn1nnc(Cc2c(-c3ccc(O[C@H]4CCC[C@H](C(=O)O)C4)c(C)n3)nnn2C)n1 [Example 401, (1S,3S)-3-{[6-(5-{[2-(3-methoxy-propyl)-2H-1,2,3,4-tetrazol-5-yl]methyl}-1-methyl-1H-1,2,3-triazol-4-yl)-2-methylpyridin-3-yl]oxy}cyclohexane-1-carboxylic acid]  1120 nM

Test system: MCT
Assay: not given
Details: MCT cells, co-treatment with LPA; cited from earlier work

For Cc1noc(-c2ccc(CSCCC(=O)O)cc2)c1NC(=O)OC(C)c1ccccc1Cl (stereo not drawn) [Ki16425], the “LPA-induced CTGF expression” value is listed as “almost completely suppressed”.

Test system: UUO mice
Assay: not given
Details: cited from earlier work

For Cc1noc(-c2ccc(CSCCC(=O)O)cc2)c1NC(=O)OC(C)c1ccccc1Cl (stereo not drawn) [Ki16425], the “renal fibrosis profile in UUO mice” value is listed as “closely resembled the profile of LPA1 (−/−) mice”.

Test system: human foetal lung fibroblasts
Assay: not given
Details: cited from earlier work

In the case of Cc1noc(-c2ccc(CSCCC(=O)O)cc2)c1NC(=O)OC(C)c1ccccc1Cl (stereo not drawn) [Ki16425], the “chemotaxis of human foetal lung fibroblasts induced by BAL from IPF patients” value is listed as “blocked”.

Test system: pancreatic cancer cell lines
Assay: not given
Details: highly peritoneal metastatic pancreatic cancer cell line; cited from earlier work

In the case of Cc1noc(-c2ccc(CSCCC(=O)O)cc2)c1NC(=O)OC(C)c1ccccc1Cl (stereo not drawn) [Ki16425], the “LPA-induced and ascites-induced invasion activity” value is listed as “blocked”.

Same assay, conditions: pancreatic cancer cell lines; cited from earlier work

For Cc1noc(-c2ccc(CSCCC(=O)O)cc2)c1NC(=O)OC(C)c1ccccc1Cl (stereo not drawn) [Ki16425], the “in vitro migration in response to LPA and peritoneal fluid (ascites) from pancreatic cancer patients” value is given as “effectively blocked”.

Test system: IPF patients
Assay: not given
Details: 26-week clinical trial in IPF patients; cited from earlier work

In the case of Cc1noc(-c2ccc(-c3ccc(C4(C(=O)O)CC4)cc3)cc2)c1NC(=O)O[C@H](C)c1ccccc1 [BMS-986020], the “rate of FVC (forced vital capacity) decline” value is listed as “significantly reduce”.

From patent publication US11319315B2, “Cyclohexyl acid triazole azoles as LPA antagonists” (BRISTOL-MYERS SQUIBB COMPANY, priority 2017, dated 2022)
